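Where inhibition never reached the appropriate level, the endpoint shown equals the highest concentration tested. Otherwise, values were interpolated linearly from a five-concentration, 48-hour dose response in 96-well plates. At the GI50, growth is halved.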 Active and inactive are the calls of the source. Cut-off read from the data, not from the text of the source: active = GI50 up to about 1.1 µM and inactive = higher.
Columns and labels:
Test in all cases: NCI anticancer screen, dose series, 48 h
MCF7 = test system: MCF7
HOP-62 = test system: HOP-62
HCT-15 = test system: HCT-15
UACC-257 = test system: UACC-257
MOLT-4 = test system: MOLT-4
SK-MEL-28 = test system: SK-MEL-28
NCI-H460 = test system: NCI-H460
MDA-MB-435 = test system: MDA-MB-435
OVCAR-5 = test system: OVCAR-5
A549 = test system: A549
HL-60 = test system: HL-60
NCI-H522 = test system: NCI-H522
Malme-3M = test system: Malme-3M
SNB-19 = test system: SNB-19
HOP-92 = test system: HOP-92
SF-539 = test system: SF-539
K562 = test system: K562
NCI-H23 = test system: NCI-H23
A498 = test system: A498
MDA-N = test system: MDA-N

Row | Compound | GI50 (MCF7) | GI50 (HOP-62) | GI50 (HCT-15) | GI50 (UACC-257) | GI50 (MOLT-4) | GI50 (SK-MEL-28) | GI50 (NCI-H460) | GI50 (MDA-MB-435) | GI50 (OVCAR-5) | GI50 (A549) | GI50 (HL-60) | GI50 (NCI-H522) | GI50 (Malme-3M) | GI50 (SNB-19) | GI50 (HOP-92) | GI50 (SF-539) | GI50 (K562) | GI50 (NCI-H23) | GI50 (A498) | GI50 (MDA-N)
1 | Cc1c(C(=O)O)sc2nc[nH]c(=O)c12 | > 100 µM (inactive) | > 100 µM (inactive) | > 100 µM | > 100 µM (inactive) | > 100 µM (inactive) | > 100 µM (inactive) | > 100 µM (inactive) | > 100 µM (inactive) | > 100 µM (inactive) | > 100 µM (inactive) | > 100 µM (inactive) | > 100 µM (inactive) | > 100 µM (inactive) | > 100 µM (inactive) | 67.1 µM (inactive) | > 100 µM (inactive) | > 100 µM (inactive) | > 100 µM (inactive) |  | 
2 | C=CCN1C(=O)/C(=C/c2ccccc2)NC1=S | > 100 µM (inactive) | > 100 µM (inactive) | > 100 µM | 74.1 µM (inactive) | 61.7 µM (inactive) | > 100 µM (inactive) | > 100 µM (inactive) | > 100 µM (inactive) | > 100 µM (inactive) | 88.9 µM (inactive) | 43.5 µM (inactive) | 94.6 µM (inactive) | > 100 µM (inactive) | > 100 µM (inactive) | > 100 µM (inactive) | > 100 µM (inactive) | 84.5 µM (inactive) | > 100 µM (inactive) | 38.3 µM (inactive) | 
3 | COC1=CC(=O)C[C@@H](C)[C@]12Oc1c(Cl)c(OC)cc(OC)c1C2=O [GRISEOFULVIN] | 9.62 µM (inactive) | 49.9 µM (inactive) | 22.8 µM | > 20.5 µM (inactive) | 39.9 µM (inactive) | 99.3 µM (inactive) | 28 µM (inactive) | 2.42 µM (inactive) | > 91.6 µM (inactive) | 63.5 µM (inactive) | 6.7 µM (inactive) | 8.11 µM (inactive) | 76.4 µM (inactive) | 35.2 µM (inactive) | > 34.3 µM (inactive) | 14.6 µM (inactive) | 3.47 µM (inactive) | 42.1 µM (inactive) | > 47.2 µM (inactive) | 
4 | CC(C)(C)C(=O)C(Cc1ccccc1)C(=O)C(C)(C)C | > 100 µM (inactive) | > 100 µM (inactive) | > 100 µM | > 100 µM (inactive) | 50.7 µM (inactive) | > 100 µM (inactive) | > 100 µM (inactive) |  | > 100 µM (inactive) | > 100 µM (inactive) | 30.5 µM (inactive) | 98.4 µM (inactive) | > 100 µM (inactive) | > 100 µM (inactive) | 29.6 µM (inactive) | > 100 µM (inactive) | 55 µM (inactive) | > 100 µM (inactive) | > 100 µM (inactive) | > 100 µM (inactive)
5 | COc1ccc(/C=C2\CSC/C(=C\c3ccc(OC)c(OC)c3OC)C2=O)c(OC)c1OC | 65 µM (inactive) | 60.8 µM (inactive) | 25.6 µM | 42.3 µM (inactive) | > 10 µM (inactive) | 28.1 µM (inactive) | 34.5 µM (inactive) |  | > 100 µM (inactive) | > 100 µM (inactive) | 29.2 µM (inactive) |  | 5.86 µM (inactive) | > 100 µM (inactive) | 35.6 µM (inactive) | 26.4 µM (inactive) | 23.1 µM (inactive) | 43.5 µM (inactive) |  | 30.3 µM (inactive)
6 | COC(=O)[C@@H](Cc1ccccc1)NNC(=O)OC(C)(C)C | > 100 µM (inactive) | > 100 µM (inactive) | > 100 µM | > 100 µM (inactive) | > 100 µM (inactive) | > 100 µM (inactive) | > 100 µM (inactive) | > 100 µM (inactive) | > 100 µM (inactive) | > 100 µM (inactive) | > 100 µM (inactive) | > 100 µM (inactive) | > 100 µM (inactive) |  |  | > 100 µM (inactive) | > 100 µM (inactive) | > 100 µM (inactive) | > 100 µM (inactive) | 
7 | CC(C)(CCCCC(C)(C)[N+](C)(C)C)[N+](C)(C)C | > 100 µM (inactive) | > 100 µM (inactive) | > 100 µM | > 100 µM (inactive) | > 100 µM (inactive) | > 100 µM (inactive) | > 100 µM (inactive) | > 100 µM (inactive) | > 100 µM (inactive) | > 100 µM (inactive) | > 100 µM (inactive) | > 100 µM (inactive) |  | > 100 µM (inactive) |  | > 100 µM (inactive) | > 100 µM (inactive) |  |  | > 100 µM (inactive)
8 | S=C1CCSc2c(ccc3ccccc23)N1 | 72.4 µM (inactive) | 41.4 µM (inactive) | > 100 µM | > 100 µM (inactive) | 30 µM (inactive) | > 100 µM (inactive) | 71.8 µM (inactive) | > 100 µM (inactive) | > 100 µM (inactive) | > 100 µM (inactive) | 33.2 µM (inactive) | 58.5 µM (inactive) | > 100 µM (inactive) | 95.5 µM (inactive) |  |  | 56 µM (inactive) | > 100 µM (inactive) |  | > 100 µM (inactive)
9 | CC(CO)C1=CC(C#CCOCc2ccccc2)N(C(=O)Oc2ccccc2)c2ccccc21 (stereo not given) |  | 29.3 µM (inactive) | 5.04 µM | 13.2 µM (inactive) | 4.63 µM (inactive) | 54.5 µM (inactive) | 18 µM (inactive) | 15.5 µM (inactive) | 64.1 µM (inactive) | 9.98 µM (inactive) | 26.3 µM (inactive) | 7.73 µM (inactive) |  | 32.5 µM (inactive) | 7.69 µM (inactive) | 41 µM (inactive) | 8.26 µM (inactive) | 8.89 µM (inactive) | 4.59 µM (inactive) | 21.3 µM (inactive)
10 | OC(CC(O)(C(F)(F)F)C(F)(F)F)c1ccc(C(O)CC(O)(C(F)(F)F)C(F)(F)F)cc1 (stereo not given) |  | 17 µM (inactive) | 20.1 µM | 18.1 µM (inactive) | 16.3 µM (inactive) | 16 µM (inactive) | 14.7 µM (inactive) | 18.2 µM (inactive) | 17.1 µM (inactive) | 14.4 µM (inactive) | 17.1 µM (inactive) | 18.3 µM (inactive) | 14.2 µM (inactive) | 17.1 µM (inactive) | 13 µM (inactive) | 15.7 µM (inactive) | 15.9 µM (inactive) | 12.9 µM (inactive) | 12.6 µM (inactive) | 19.5 µM (inactive)
11 | C(CCCCc1nnc(N2CCCCC2)o1)CCCc1nnc(N2CCCCC2)o1 | > 100 µM (inactive) | > 100 µM (inactive) | > 100 µM | > 100 µM (inactive) | > 100 µM (inactive) | > 100 µM (inactive) | > 100 µM (inactive) | > 100 µM (inactive) | > 100 µM (inactive) | > 100 µM (inactive) | > 100 µM (inactive) | > 100 µM (inactive) | > 100 µM (inactive) | > 100 µM (inactive) | > 100 µM (inactive) | > 100 µM (inactive) | > 100 µM (inactive) | > 100 µM (inactive) | > 100 µM (inactive) | 
12 | C=C(CN(C)C)C(=O)c1ccccc1C |  | > 100 µM (inactive) | 24.9 µM | > 55.7 µM (inactive) | 7.52 µM (inactive) | 9.89 µM (inactive) | > 100 µM (inactive) |  | > 100 µM (inactive) | > 100 µM (inactive) | 5.52 µM (inactive) | 5.69 µM (inactive) | 17.9 µM (inactive) | > 100 µM (inactive) | 17.7 µM (inactive) | > 40.4 µM (inactive) | 15.7 µM (inactive) | > 100 µM (inactive) | > 100 µM (inactive) | 
13 | CCOC(=O)c1c(-c2ccc(OC)cc2)c(C#N)c(=S)n(C2OC(COC(C)=O)C(OC(C)=O)C(OC(C)=O)C2OC(C)=O)c1-c1ccccc1 (stereo not given) | > 100 µM (inactive) | > 100 µM (inactive) | > 100 µM | > 100 µM (inactive) | > 100 µM (inactive) | > 100 µM (inactive) | > 100 µM (inactive) | > 100 µM (inactive) | > 100 µM (inactive) | > 100 µM (inactive) | > 100 µM (inactive) |  | > 100 µM (inactive) | > 100 µM (inactive) | 17.8 µM (inactive) | > 100 µM (inactive) | > 100 µM (inactive) | > 100 µM (inactive) |  | > 100 µM (inactive)
14 | COc1ccc(-c2[nH]c(=O)n(C3OC(CO)C(O)C(O)C3O)c(=O)c2C#N)cc1 (stereo not given) | > 100 µM (inactive) | > 100 µM (inactive) | > 100 µM | > 100 µM (inactive) | > 100 µM (inactive) | > 100 µM (inactive) | > 100 µM (inactive) | > 100 µM (inactive) | > 100 µM (inactive) | > 100 µM (inactive) |  | > 100 µM (inactive) |  | > 100 µM (inactive) | > 100 µM (inactive) | > 100 µM (inactive) | > 100 µM (inactive) | > 100 µM (inactive) | > 100 µM (inactive) | 
15 | COc1ccccc1CNC1=Nc2ccncc2S(=O)(=O)N1c1ccccc1 | 79.4 µM (inactive) |  | 49.7 µM | 82.8 µM (inactive) | 69 µM (inactive) | > 100 µM (inactive) | 60.4 µM (inactive) | > 100 µM (inactive) | > 100 µM (inactive) | > 100 µM (inactive) | 41.1 µM (inactive) | 25.1 µM (inactive) | 37.7 µM (inactive) | > 100 µM (inactive) | 39.7 µM (inactive) |  | 71 µM (inactive) | 85.1 µM (inactive) | 45.8 µM (inactive) | 
16 | CN1C(=O)C(C(=O)Nc2ccccn2)C2C[C@@]1(C)Oc1ccccc12 (stereo not given in full) |  | > 100 µM (inactive) | > 100 µM | > 100 µM (inactive) | 62.7 µM (inactive) | > 100 µM (inactive) | > 100 µM (inactive) | > 100 µM (inactive) | > 100 µM (inactive) | > 100 µM (inactive) | > 100 µM (inactive) | > 100 µM (inactive) | > 100 µM (inactive) | > 100 µM (inactive) | > 100 µM (inactive) |  | > 100 µM (inactive) | > 100 µM (inactive) | 11.1 µM (inactive) | > 100 µM (inactive)

— ChEMBL document CHEMBL1201862, “PubChem BioAssay data set” (2004)
